Among the data in patent US20240051956A1, “SOS1 INHIBITORS AND USES THEREOF” (QILU REGOR THERAPEUTICS INC., priority 2020, published 2024) are IC50 values, retold here.

In one experiment the test system is NCI-H358. Kind of experiment: Cell proliferation assay, 3D, CellTiter-Glo 3D. The experiment is classed as cell-based, human. The settings on record: Homo sapiens, 72 h; NCI-H358 (KRAS G12C), 3D ultra-low attachment, 3 days; read-out: anit-prolif. H358 IC50. How it is done:
b. Cell Proliferation Assay
Low IC50 values are indicative of high potency of the compounds in this assay setting.
Cell proliferation assay is performed in three-dimensional (3D) ultra-low conditions with the human cell line NCI-H358, a human non-small cell lung cancer (NSCLC) cell line with a KRAS G12C mutation.
• 96-well Clear Round Bottom Ultra-Low Attachment Microplate (Corning, Cat. 7007) • 96-well Flat Clear Bottom White Polystyrene TC-treated Microplates (Corning, Cat. 3610) • RPMI-1640 Medium (Gibco, Cat. 22400105) • Fetal Bovine Serum (FBS) (Gibco, Cat. 10099141C) • 0.25% Trypsin-EDTA (Gibco, Cat. 25200056) • Penicillin-Streptomycin (Gibco, Cat. 15140122) • CellTiter-Glo 3D Cell Viability Assay (Promega, Cat. G9683)
NCI-H358 cells (ATCC, Cat. CRL-5807) are grown in cell culture flasks using RPMI medium supplemented with 10% FBS. Cells are incubated at 37° C. and 5% C02 in a humidified atmosphere, with sub-cultivation performed twice a week. Cells are trypsinized, counted and plated in 96-well ultra-low adhesion plates for 3D cell viability determination. The day after plating, serial dilutions of SOS1 inhibitor compounds are made using Tecan D300e Digital Dispenser to evaluate a concentration-dependent effect on cell viability. The concentration of the test compounds covers a range between 5 μM and 0.76 nM with serial 1:3 dilutions in 9 concentrations. 0.5 μL serial dilutions of the compounds are added in duplicates. 3 days later, the CellTiter-Glo 3D Cell Viability Assay is used to measure cell viability effects of SOS1 inhibitor compounds in 3D format. Luminescent intensity is determined using Envision (PerkinElmer). Data is analyzed and IC50 values are calculated using GraphPad Prism.
(Cellular ATP, detected with luciferase, serves as a proxy for viable cell number.)

A further experiment has as its target SOS1 and KRAS G12D (Homo sapiens (Human), UniProt Q07889). Kind of experiment: KRAS::SOS1 AlphaScreen Binding Assay. Particulars: SOS1 (564-1049), KRAS G12D (1-169), GDP. The text has this: a. KRAS::SOS1 AlphaScreen Binding Assay
Low IC50 values of given compounds are indicative of high potency of the SOS1 inhibitor compounds in this assay setting.
• GST-TEV-SOS1 (564-1049) and His-TEV-Avi-KRAS G12D (1-169) are purchased from Viva Biotech (Shanghai) Ltd. • GDP (Sigma, Cat. G7127) • AlphaLISA Glutathione Acceptor Beads (PerkinElmer, Cat. AL109C) • AlphaScreen Streptavidin Donor Beads (PerkinElmer, Cat. 6760002S) • Assay plates: ProxiPlate-384 Plus, White 384-shallow well Microplate (PerkinElmer, Cat. 6008280)
SOS1 inhibitor compounds are diluted to a final start concentration of […]. Serial dilutions of compounds are made using Tecan D300e Digital Dispenser in 9 concentrations with serial 1:3 dilutions. 100 nL of compound solution is transferred to the 384-well assay plate per well, covering a range between 1 μM and 0.15 nM minimum in duplicate. 10 nM (final assay concentration) KRAS G12D, 5 nM (final assay concentration) SOS1 and 10 μM (final assay concentration) GDP are mixed in assay buffer, and 5 μL of KRAS::SOS1 GDP mix is added into the assay plate to the 100 nL of compound solution (final dilution in the assay 1:100, final DMSO concentration 1%). After a 30 min incubation, AlphaLISA Glutathione Acceptor Beads and AlphaScreen Streptavidin Donor Beads are mixed in assay buffer at a concentration of 5 µg/mL (final assay concentration), and 5 μL of bead mix is added into the assay plate. Plates are kept at room temperature in a darkened incubator for 3 h. After a 3 h incubation, the signal is determined using Envision (PerkinElmer). The excitation wavelength is 680 nm, and emission 615 nm. IC50 values are calculated and analyzed using GraphPad Prism.
A general note: Bead proximity is the source of the signal in Alpha formats.

Bounds are passed on as bounds.

Usually IC50 stands for the midpoint of a concentration-inhibition curve.

Sequence of SOS1 and KRAS G12D (Q07889 564-1049, stated change not applied): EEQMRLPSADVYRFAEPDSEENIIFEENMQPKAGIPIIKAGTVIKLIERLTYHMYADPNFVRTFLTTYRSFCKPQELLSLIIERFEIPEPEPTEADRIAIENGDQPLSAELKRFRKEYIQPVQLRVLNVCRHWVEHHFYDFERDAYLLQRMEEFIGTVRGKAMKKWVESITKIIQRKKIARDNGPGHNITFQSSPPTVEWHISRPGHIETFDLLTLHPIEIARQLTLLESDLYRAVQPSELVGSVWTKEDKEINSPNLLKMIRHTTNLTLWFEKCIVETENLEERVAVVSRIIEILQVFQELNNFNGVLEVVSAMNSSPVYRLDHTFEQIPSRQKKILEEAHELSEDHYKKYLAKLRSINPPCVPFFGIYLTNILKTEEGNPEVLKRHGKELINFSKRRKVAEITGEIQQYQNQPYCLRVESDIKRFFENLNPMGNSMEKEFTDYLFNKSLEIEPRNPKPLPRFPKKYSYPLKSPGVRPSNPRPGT

With `Cc1nc(N[C@H](C)c2cccc(C(F)F)c2F)c2cn(N3CCOCC3)c(=O)c(-c3ccc(C#N)nc3)c2n1` [Example 75, (R)-5-(4-((1-(3-(difluoromethyl)-2-fluorophenyl)ethyl)amino)-2-methyl-6-morpholino-7-oxo-6,7-dihydropyrido[4,3-]pyrimidin-8-yl)picolinonitrile], the IC50 in the experiment on NCI-H358 is no more than 100 nM; at SOS1 and KRAS G12D, no more than 15 nM.

For `Cc1nc(N[C@H](C)c2cccc(C(F)F)c2F)c2cn(N3CCOCC3)c(=O)c(-c3cn(CC(F)F)cn3)c2n1` [Example 69], the IC50 is no more than 100 nM with NCI-H358; no more than 15 nM at SOS1 and KRAS G12D.

For the molecule `COC1CCN(n2cc3c(N[C@H](C)c4cccc(C(F)F)c4F)nc(C)nc3cc2=O)CC1` [Example 7], the IC50 is 100 to 500 nM with NCI-H358; no more than 15 nM at SOS1 and KRAS G12D.

Take `Cc1nc(N[C@H](C)c2cccc(C(F)F)c2F)c2cn(N3CCOCC3)c(=O)c(-c3ccccn3)c2n1` [Example 74, (R)-4-((1-(3-(difluoromethyl)-2-fluorophenyl)ethyl)amino)-2-methyl-6-morpholino-8-(pyridin-2-yl)pyrido[4,3-d]pyrimidin-7(6H)-one]: the IC50 in the experiment with NCI-H358 is 100 to 500 nM; at SOS1 and KRAS G12D, no more than 15 nM.

On to `Cc1nc(N[C@H](C)c2cccc(C(F)F)c2F)c2cn(N3CCN(C(C)C)CC3)c(=O)cc2n1` [Example 12, 4-[[(1R)-1-[3-(difluoromethyl)-2-fluoro-phenyl]ethyl]amino]-6-(4-isopropylpiperazin-1-yl)-2-methyl-pyrido[4,3-d]pyrimidin-7-one], for which the IC50 in the experiment on NCI-H358 is 100 to 500 nM; at SOS1 and KRAS G12D it was no more than 15 nM.

Regarding `CC(=O)N1CCN(n2cc3c(N[C@H](C)c4cccc(C(F)F)c4F)nc(C)nc3cc2=O)CC1` [Example 11, 6-(4-acetylpiperazin-1-yl)-4-[[(1R)-1-[3-(difluoromethyl)-2-fluoro-phenyl]ethyl]amino]-2-methyl-pyrido[4,3-d]pyrimidin-7-one], the IC50 was 500 to 1000 nM with NCI-H358; no more than 15 nM on SOS1 and KRAS G12D.

Consider `Cc1nc(N[C@H](C)c2cccc(C(F)F)c2F)c2cn(N3CCOCC3)c(=O)c(-c3cncnc3)c2n1` [Example 52], for which the IC50 with NCI-H358 was no more than 100 nM; on SOS1 and KRAS G12D it was no more than 15 nM.

In the case of `Cc1nc(N[C@H](C)c2cccc(C(F)F)c2F)c2cn(N3CCOCC3)c(=O)c(-c3ccc(C#N)c(F)c3)c2n1` [Example 62], the half-maximal inhibitory concentration (IC50) lay in the range of 100 to 500 nM in the experiment on NCI-H358; 15 to 150 nM on SOS1 and KRAS G12D.

In the case of `Cc1nc(N[C@H](C)c2cccc(C(F)(F)F)c2)c2cn(N3CCOCC3)c(=O)c(F)c2n1` [Example 33], the IC50 in the experiment on NCI-H358 was 100 to 500 nM; on SOS1 and KRAS G12D, no more than 15 nM.

Regarding `Cc1nc(N[C@H](C)c2cccc(C(F)F)c2F)c2cn(N3CCOCC3)c(=O)c(-c3cc(F)cc(C#N)c3)c2n1` [Example 64], the IC50 is 500 to 1000 nM with NCI-H358; 15 to 150 nM at SOS1 and KRAS G12D.

In the case of `COc1ccc(-c2c(=O)n(N3CCOCC3)cc3c(N[C@H](C)c4cccc(C(F)F)c4F)nc(C)nc23)cn1` [Example 58], the IC50 was no more than 100 nM with NCI-H358; no more than 15 nM on SOS1 and KRAS G12D.

For `Cc1nc(N[C@H](C)c2cccc(C(F)F)c2F)c2cn(N3CCOCC3)c(=O)c(-c3cnc(C#N)nc3)c2n1` [Example 66], the IC50 in the experiment with NCI-H358 was no more than 100 nM; at SOS1 and KRAS G12D, no more than 15 nM.

Take `Cc1nc(N[C@H](C)c2cccc(C(F)F)c2F)c2cn(N3CCC(F)(F)CC3)c(=O)cc2n1` [Example 3]: the IC50 with NCI-H358 is 100 to 500 nM; on SOS1 and KRAS G12D it was no more than 15 nM.

As to `Cc1nc(N[C@H](C)c2cccc(C(F)F)c2F)c2cn(-n3ccnc3)c(=O)c(F)c2n1` [Example 86], the IC50 with NCI-H358 fell in the range of 500 to 1000 nM; at SOS1 and KRAS G12D, 15 to 150 nM.

With `Cc1nc(N[C@@H](C)c2cccc(C(F)F)c2C)c2cn(N3CCOCC3)c(=O)cc2n1` [Example 22], the IC50 with NCI-H358 was greater than 1000 nM; at SOS1 and KRAS G12D, 150 to 1000 nM.

Regarding `Cc1nc(N[C@H](C)c2cc(N)cc(C(F)(F)F)c2)c2cn(N3CCOCC3)c(=O)cc2n1` [Example 16, 4-[[(1R)-1-[3-amino-5-(trifluoromethyl)phenyl]ethyl]amino]-2-methyl-6-morpholino-pyrido[4,3-d]pyrimidin-7-one], the IC50 with NCI-H358 fell in the range of 100 to 500 nM; on SOS1 and KRAS G12D it was 15 to 150 nM.

Consider `CNCc1ccccc1-c1csc([C@@H](C)Nc2nc(C)nc3cc(=O)n(N4CCOCC4)cc23)c1` [Example 77, 2-methyl-4-[[(1R)-1-[4-[2-(methylaminomethyl)phenyl]-2-thienyl]ethyl]amino]-6-morpholino-pyrido[4,3-d]pyrimidin-7-one], for which the IC50 was 100 to 500 nM in the experiment on NCI-H358; no more than 15 nM at SOS1 and KRAS G12D.

As for `Cc1nc(N[C@H](C)c2cccc(C(F)F)c2F)c2cn(N3CCCOCC3)c(=O)cc2n1` [Example 6], the IC50 was no more than 100 nM in the experiment on NCI-H358; no more than 15 nM at SOS1 and KRAS G12D.

For `Cc1nc(N[C@H](C)c2cccc(C(F)F)c2F)c2cn(N3CCOCC3)c(=O)c(-c3cnn(C)c3)c2n1` [Example 70], the IC50 in the experiment with NCI-H358 was 100 to 500 nM; on SOS1 and KRAS G12D it was no more than 15 nM.

For the molecule `Cc1nc(N[C@H](C)c2cccc(C(F)(F)F)c2C)c2cn(N3CCOCC3)c(=O)c(-c3ccc(C#N)nc3)c2n1` [Example 76], the IC50 in the experiment on NCI-H358 lay in the range of 100 to 500 nM; on SOS1 and KRAS G12D it was 15 to 150 nM.

Take `Cc1nc(N[C@H](C)c2cccc(C(F)F)c2C)c2cn(N3CCOCC3)c(=O)cc2n1` [Example 21]: the IC50 in the experiment on NCI-H358 is no more than 100 nM; at SOS1 and KRAS G12D, no more than 15 nM.

With `Cc1nc(N[C@H](C)c2cccc(C(F)F)c2F)c2cn(N(C)C)c(=O)cc2n1` [Example 34, 4-[[(1R)-1-[3-(difluoromethyl)-2-fluoro-phenyl]ethyl]amino]-6-(dimethylamino)-2-methyl-pyrido[4,3-d]pyrimidin-7-one], the IC50 in the experiment on NCI-H358 was 100 to 500 nM; at SOS1 and KRAS G12D, no more than 15 nM.

In the case of `Cc1nc(N[C@H](C)c2cccc(C(F)(F)F)c2F)c2cn(N3CCOCC3)c(=O)cc2n1` [Example 19], the IC50 with NCI-H358 was 100 to 500 nM; at SOS1 and KRAS G12D it was no more than 15 nM.

For `Cc1nc(N[C@H](C)c2cccc(C(F)F)c2F)c2cn(N3CCCCC3)c(=O)cc2n1` [Example 2], the IC50 is no more than 100 nM in the experiment with NCI-H358; no more than 15 nM at SOS1 and KRAS G12D.

With `Cc1nc(N[C@H](C)c2cccc(C(F)F)c2F)c2cn(N3CCOCC3)c(=O)c(C3CC3)c2n1` [Example 42, 8-cyclopropyl-4-[[(1R)-1-[3-(difluoromethyl)-2-fluoro-phenyl]ethyl]amino]-2-methyl-6-morpholino-pyrido[4,3-d]pyrimidin-7-one], the IC50 was 100 to 500 nM with NCI-H358; no more than 15 nM at SOS1 and KRAS G12D.

As to `Cc1ccc(-c2c(=O)n(N3CCOCC3)cc3c(N[C@H](C)c4cccc(C(F)F)c4F)nc(C)nc23)cn1` [Example 59], the IC50 with NCI-H358 was no more than 100 nM; on SOS1 and KRAS G12D it was no more than 15 nM.

Regarding `Cc1nc(N[C@H](C)c2cccc(C(F)F)c2F)c2cn(N3CCOCC3)c(=O)c(-c3ccnc(C#N)c3)c2n1` [Example 68], the IC50 with NCI-H358 was 100 to 500 nM; at SOS1 and KRAS G12D, no more than 15 nM.

In the case of `Cc1nc(N[C@H](C)c2cccc(C(F)F)c2F)c2cn(N3CCOCC3)c(=O)c(-c3ccc[nH]c3=O)c2n1` [Example 51], the IC50 in the experiment with NCI-H358 is greater than 1000 nM; on SOS1 and KRAS G12D it was no more than 15 nM.

For `Cc1nc(N[C@H](C)c2cccc(C(F)F)c2F)c2cn(N3CCOCC3)c(=O)c(-c3ccncc3)c2n1` [Example 46], the IC50 in the experiment with NCI-H358 was no more than 100 nM; on SOS1 and KRAS G12D, no more than 15 nM.

With `Cc1nc(N[C@H](C)c2cccc(C(F)F)c2F)c2cn(N3CCOCC3)c(=O)c(-c3cccnc3)c2n1` [Example 45], the IC50 is no more than 100 nM in the experiment on NCI-H358; no more than 15 nM on SOS1 and KRAS G12D.

As for `Cc1nc(N[C@H](C)c2cccc(C(F)F)c2F)c2cn(N3CCCC3)c(=O)cc2n1` [Example 35], the IC50 in the experiment on NCI-H358 is 100 to 500 nM; at SOS1 and KRAS G12D, no more than 15 nM.
